{
  "source": "ChEMBL document CHEMBL5649169",
  "about": "(ChemMedChem, 2018); also: assay method not described here",
  "key": {"[1]": {"molecular_target": "Nucleosome assembly protein 1-like 4 (Homo sapiens) (UniProt Q99733)", "sequence (Q99733 whole entry)": "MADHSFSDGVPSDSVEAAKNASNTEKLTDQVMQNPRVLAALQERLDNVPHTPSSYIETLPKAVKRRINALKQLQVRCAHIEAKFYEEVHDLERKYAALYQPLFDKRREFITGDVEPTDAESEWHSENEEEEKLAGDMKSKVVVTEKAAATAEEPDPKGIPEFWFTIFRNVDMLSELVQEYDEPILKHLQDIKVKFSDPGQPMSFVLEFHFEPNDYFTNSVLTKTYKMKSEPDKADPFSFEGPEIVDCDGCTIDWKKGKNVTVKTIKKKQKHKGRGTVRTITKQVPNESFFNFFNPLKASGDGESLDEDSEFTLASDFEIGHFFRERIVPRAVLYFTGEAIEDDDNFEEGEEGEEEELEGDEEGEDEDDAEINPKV"}, "[2]": {"molecular_target": "Pumilio homolog 2 (Homo sapiens) (UniProt Q8TB72)"}, "[3]": {"molecular_target": "Protein prenyltransferase alpha subunit repeat-containing protein 1 (Homo sapiens) (UniProt Q7Z6K3)"}, "[4]": {"molecular_target": "Macrophage-stimulating protein receptor (Homo sapiens) (UniProt Q04912)", "sequence (Q04912 25-304 limits assumed)": "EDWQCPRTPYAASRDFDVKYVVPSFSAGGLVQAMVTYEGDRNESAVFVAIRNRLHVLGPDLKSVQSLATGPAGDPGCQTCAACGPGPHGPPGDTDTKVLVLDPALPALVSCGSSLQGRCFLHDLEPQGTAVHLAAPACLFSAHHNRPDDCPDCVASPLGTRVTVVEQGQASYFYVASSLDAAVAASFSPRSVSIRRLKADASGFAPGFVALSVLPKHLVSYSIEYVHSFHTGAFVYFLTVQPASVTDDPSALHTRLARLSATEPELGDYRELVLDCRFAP", "sequence (Q04912 310-1400 limits assumed)": "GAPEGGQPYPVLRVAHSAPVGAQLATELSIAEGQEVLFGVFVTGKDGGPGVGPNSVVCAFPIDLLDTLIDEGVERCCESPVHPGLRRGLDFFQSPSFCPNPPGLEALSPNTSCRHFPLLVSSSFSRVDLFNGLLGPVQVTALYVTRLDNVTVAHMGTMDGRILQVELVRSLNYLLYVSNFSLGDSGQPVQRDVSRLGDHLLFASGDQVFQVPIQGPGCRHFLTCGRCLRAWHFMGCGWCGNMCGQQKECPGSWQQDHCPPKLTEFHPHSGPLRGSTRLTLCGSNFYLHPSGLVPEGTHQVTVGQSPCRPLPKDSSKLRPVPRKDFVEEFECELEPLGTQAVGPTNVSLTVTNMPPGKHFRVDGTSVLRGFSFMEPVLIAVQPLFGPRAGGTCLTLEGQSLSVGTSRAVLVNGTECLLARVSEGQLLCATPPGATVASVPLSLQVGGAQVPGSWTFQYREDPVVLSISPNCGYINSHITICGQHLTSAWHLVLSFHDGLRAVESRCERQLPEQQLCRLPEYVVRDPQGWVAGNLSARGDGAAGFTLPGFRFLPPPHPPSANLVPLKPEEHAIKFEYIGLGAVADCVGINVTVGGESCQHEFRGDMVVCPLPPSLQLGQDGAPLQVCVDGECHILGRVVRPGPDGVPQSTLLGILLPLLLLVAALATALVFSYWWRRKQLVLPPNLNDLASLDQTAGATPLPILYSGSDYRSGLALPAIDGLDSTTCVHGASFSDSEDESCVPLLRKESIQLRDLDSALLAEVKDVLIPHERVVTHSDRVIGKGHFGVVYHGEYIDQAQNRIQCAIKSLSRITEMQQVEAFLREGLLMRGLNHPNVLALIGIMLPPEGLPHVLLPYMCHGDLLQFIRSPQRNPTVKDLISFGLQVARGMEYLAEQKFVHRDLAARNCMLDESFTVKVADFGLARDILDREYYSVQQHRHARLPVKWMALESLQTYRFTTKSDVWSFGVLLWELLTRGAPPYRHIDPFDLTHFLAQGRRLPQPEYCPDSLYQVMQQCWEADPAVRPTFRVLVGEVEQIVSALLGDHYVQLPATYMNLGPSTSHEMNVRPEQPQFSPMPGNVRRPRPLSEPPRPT"}, "[5]": {"molecular_target": "ATP-dependent RNA helicase A (Homo sapiens) (UniProt Q08211)", "sequence (Q08211 whole entry)": "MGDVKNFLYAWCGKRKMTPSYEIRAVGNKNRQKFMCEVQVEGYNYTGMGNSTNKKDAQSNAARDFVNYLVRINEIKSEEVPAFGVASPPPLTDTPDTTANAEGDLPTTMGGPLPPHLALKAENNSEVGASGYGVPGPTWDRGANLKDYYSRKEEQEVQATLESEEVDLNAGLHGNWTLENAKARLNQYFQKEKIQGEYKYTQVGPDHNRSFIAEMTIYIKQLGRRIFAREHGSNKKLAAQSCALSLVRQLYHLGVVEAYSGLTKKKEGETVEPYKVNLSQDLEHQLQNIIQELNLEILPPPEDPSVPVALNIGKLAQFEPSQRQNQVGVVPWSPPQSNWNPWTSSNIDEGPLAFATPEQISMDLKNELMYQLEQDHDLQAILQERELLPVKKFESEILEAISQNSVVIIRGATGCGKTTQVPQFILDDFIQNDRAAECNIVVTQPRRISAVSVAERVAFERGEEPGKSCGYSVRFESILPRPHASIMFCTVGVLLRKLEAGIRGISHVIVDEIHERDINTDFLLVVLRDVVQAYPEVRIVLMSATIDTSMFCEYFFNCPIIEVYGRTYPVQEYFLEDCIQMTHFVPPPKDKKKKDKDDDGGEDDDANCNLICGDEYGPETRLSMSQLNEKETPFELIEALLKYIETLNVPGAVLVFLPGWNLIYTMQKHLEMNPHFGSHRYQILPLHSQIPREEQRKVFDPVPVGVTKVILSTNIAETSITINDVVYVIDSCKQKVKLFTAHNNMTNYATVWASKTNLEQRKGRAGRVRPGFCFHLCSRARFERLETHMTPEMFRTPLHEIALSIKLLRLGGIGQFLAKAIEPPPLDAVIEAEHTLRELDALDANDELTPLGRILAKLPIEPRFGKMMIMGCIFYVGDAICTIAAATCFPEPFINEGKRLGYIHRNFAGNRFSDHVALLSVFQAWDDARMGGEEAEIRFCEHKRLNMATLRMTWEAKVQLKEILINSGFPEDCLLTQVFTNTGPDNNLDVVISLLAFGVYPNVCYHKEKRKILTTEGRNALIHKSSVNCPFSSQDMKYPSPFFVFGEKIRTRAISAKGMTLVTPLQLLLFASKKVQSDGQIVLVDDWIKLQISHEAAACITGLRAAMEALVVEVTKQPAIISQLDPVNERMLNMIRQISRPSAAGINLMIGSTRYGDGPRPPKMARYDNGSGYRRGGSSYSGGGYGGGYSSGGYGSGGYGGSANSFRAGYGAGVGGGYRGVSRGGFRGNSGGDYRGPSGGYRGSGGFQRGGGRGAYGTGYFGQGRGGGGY"}, "[6]": {"molecular_target": "Very long chain fatty acid elongase 5 (Homo sapiens) (UniProt Q9NYP7)"}, "[7]": {"molecular_target": "RNA polymerase-associated protein CTR9 homolog (Homo sapiens) (UniProt Q6PD62)"}, "[8]": {"molecular_target": "Serine hydrolase BPHL (Homo sapiens) (UniProt Q86WA6)"}, "Copine-4 (Homo sapiens)": {"molecular_target": "Copine-4 (Homo sapiens) (UniProt Q96A23)"}, "[9]": {"molecular_target": "45 kDa calcium-binding protein (Homo sapiens) (UniProt Q9BRK5)", "sequence (Q9BRK5 whole entry)": "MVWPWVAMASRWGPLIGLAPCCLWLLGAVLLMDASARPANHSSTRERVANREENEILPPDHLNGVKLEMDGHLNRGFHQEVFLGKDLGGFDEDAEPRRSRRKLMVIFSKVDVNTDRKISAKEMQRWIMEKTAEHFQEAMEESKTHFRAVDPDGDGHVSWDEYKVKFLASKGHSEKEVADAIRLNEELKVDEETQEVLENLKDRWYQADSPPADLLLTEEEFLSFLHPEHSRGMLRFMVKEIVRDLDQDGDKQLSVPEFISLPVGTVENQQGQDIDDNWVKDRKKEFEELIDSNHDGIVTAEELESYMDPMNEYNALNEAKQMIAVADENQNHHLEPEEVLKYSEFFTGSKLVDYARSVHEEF"}, "[10]": {"molecular_target": "Tubulin beta-2B chain (Homo sapiens) (UniProt Q9BVA1)", "sequence (Q9BVA1 whole entry)": "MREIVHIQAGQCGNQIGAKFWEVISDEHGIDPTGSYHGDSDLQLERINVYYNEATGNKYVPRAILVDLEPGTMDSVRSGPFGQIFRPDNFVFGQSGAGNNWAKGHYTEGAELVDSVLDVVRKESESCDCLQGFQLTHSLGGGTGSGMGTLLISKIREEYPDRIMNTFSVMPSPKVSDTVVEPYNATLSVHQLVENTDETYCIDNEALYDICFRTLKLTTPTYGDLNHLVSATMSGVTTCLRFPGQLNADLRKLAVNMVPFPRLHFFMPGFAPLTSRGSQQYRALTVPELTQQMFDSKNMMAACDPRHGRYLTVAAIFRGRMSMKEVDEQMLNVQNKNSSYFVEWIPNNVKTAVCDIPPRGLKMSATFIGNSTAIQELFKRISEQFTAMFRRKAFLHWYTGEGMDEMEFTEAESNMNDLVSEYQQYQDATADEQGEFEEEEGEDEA"}, "[11]": {"molecular_target": "NAD(P) transhydrogenase, mitochondrial (Homo sapiens) (UniProt Q13423)", "sequence (Q13423 whole entry)": "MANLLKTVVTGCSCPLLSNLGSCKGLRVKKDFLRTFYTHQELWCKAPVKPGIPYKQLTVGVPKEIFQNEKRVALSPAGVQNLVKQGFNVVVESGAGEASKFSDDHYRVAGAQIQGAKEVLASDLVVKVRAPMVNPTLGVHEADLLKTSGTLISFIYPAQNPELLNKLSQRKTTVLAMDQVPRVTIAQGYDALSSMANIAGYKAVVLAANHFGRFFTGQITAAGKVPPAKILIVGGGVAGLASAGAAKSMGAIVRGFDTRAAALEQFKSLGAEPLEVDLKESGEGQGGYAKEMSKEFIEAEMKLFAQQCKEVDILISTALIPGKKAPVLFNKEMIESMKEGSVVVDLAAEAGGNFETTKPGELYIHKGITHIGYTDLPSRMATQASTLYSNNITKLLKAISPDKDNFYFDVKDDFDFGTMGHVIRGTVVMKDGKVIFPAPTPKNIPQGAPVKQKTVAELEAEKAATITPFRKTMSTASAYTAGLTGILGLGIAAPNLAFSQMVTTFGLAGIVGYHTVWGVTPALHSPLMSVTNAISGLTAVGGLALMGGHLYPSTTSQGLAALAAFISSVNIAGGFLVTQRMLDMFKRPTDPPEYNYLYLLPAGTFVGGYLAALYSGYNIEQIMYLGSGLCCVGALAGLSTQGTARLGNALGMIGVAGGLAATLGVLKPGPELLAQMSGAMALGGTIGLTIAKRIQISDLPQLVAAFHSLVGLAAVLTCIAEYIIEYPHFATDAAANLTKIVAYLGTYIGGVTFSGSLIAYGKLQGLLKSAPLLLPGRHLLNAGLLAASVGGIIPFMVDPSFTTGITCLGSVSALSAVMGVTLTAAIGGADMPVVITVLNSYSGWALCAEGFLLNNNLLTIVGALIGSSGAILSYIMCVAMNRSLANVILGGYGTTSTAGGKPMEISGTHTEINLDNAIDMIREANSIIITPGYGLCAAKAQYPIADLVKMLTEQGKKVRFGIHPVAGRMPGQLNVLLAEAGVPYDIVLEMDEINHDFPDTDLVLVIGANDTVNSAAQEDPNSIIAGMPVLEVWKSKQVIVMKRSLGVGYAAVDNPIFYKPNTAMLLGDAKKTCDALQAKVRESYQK"}},
  "data": [
    {"molecule": "Cc1ccc(C(=O)Nc2cccc(C(F)(F)F)c2)cc1Nc1nc(-c2cccnc2)nc2c1cnn2C", "values": [
      {"measurement": "ED50", "setting": "[1]", "value": 9200, "unit": "nM"},
      {"measurement": "ED50", "setting": "[2]", "value": 526, "unit": "nM"},
      {"measurement": "ED50", "setting": "[3]", "value": 15.5, "unit": "nM"},
      {"measurement": "ED50", "setting": "[4]", "value": 91.1, "unit": "nM"},
      {"measurement": "ED50", "setting": "[5]", "value": 112, "unit": "nM"},
      {"measurement": "ED50", "setting": "[6]", "value": 2870, "unit": "nM"},
      {"measurement": "ED50", "setting": "Homo sapiens", "value": 59, "unit": "nM"},
      {"measurement": "ED50", "setting": "[7]", "value": 5720, "unit": "nM"},
      {"measurement": "ED50", "setting": "[8]", "value": 13200, "unit": "nM"},
      {"measurement": "ED50", "setting": "Copine-4 (Homo sapiens)", "value": 8.67, "unit": "nM"},
      {"measurement": "ED50", "setting": "[9]", "value": 519, "unit": "nM"}
    ]},
    {"molecule": "Cc1ccc(C(=O)Nc2cccc(C(F)(F)F)c2)cc1Nc1nc(-c2cccnc2)nc2nn(C)cc12", "values": [
      {"measurement": "ED50", "setting": "[10]", "value": 14, "unit": "nM"},
      {"measurement": "ED50", "setting": "[11]", "value": 5.68, "unit": "nM"}
    ]}
  ]
}
